The values that follow are results of earlier work, collected in US8047146B2, “Subsurface soil injection apparatus and method” (priority 2001, dated 2011).

For series [1] the following is noted: rapidly photodegrades in light.

In brackets after ≈: the same amount, converted by molar mass.

For `CI` [Iodomethane, iodomethane], the solubility in water was 14.2 mg/mL (≈ 100 mM). Also, the “lifetime in the atmosphere” value in series [1] is 1.5 to 4 days.
